Measured values: PubChem BioAssay AID1963431 (Molecular Pharmacology Branch, DTP, NCI, 2024)
Several values for one entry are separate records, joined by “and”; a condition that tells them apart may be missing. Equal entries are not always repeated.

Test system: Rh18 complex spheroid viability, percent test/control
Assay: Anticancer human tumor Rh18 cell line growth inhibition [Asc];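 note: spheroids exposed to compound for 7 days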;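 for viability, T/C: 100% = DMSO vehicle control wells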
Conditions: for viability, T/C: stronger effect = lower value
In short: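 Complex spheroids combining tumor cells with HUVEC endothelial cells and human MSCs, at 37 degrees C, 5% CO2; agents tested alone or combined, half-log dilutions from at or near clinical Cmax, or 10 microM if Cmax unknown.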

For `C=C(F)C(=O)N1CCN(c2nc(OCC3CCCN3C)nc3c2CCN(c2cccc4cccc(Cl)c24)C3)CC1CC#N` (configuration not stated) + CCN1C(C(=O)NC23CCC(C(=O)O)(CC2)CC3)C(c2cccc(Cl)c2F)C2(C(=O)Nc3cc(Cl)ccc32)C12CCCCC2, the IC50 (curve of first compound, second compound 0.03 µM) was < 31.6 nM, the IC50 (curve of first compound, second compound 0.0949 µM) was < 31.6 nM and the IC50 (curve of first compound, second compound 0.3 µM) was < 31.6 nM. For the same compound, the IC50 (curve of first compound, second compound 0.949 µM) was < 31.6 nM, the IC50 (curve of first compound, second compound 3 µM) was < 31.6 nM and the viability, T/C (second compound 0.03 µM, first compound 0.0316 µM) was 25.2%. The viability, T/C (second compound 0.03 µM, first compound 0.1 µM) was 28.7%, the viability, T/C (second compound 0.03 µM, first compound 0.316 µM) was 35.2% and the viability, T/C (second compound 0.03 µM, first compound 1 µM) was 32.9%. It also gave a viability, T/C (second compound 0.03 µM, first compound 3.16 µM) of 31.6%, a viability, T/C (second compound 0.03 µM, first compound 10 µM) of 0.2% and a viability, T/C (second compound 0.0949 µM, first compound 0.0316 µM) of 19.6%. For the same compound, the viability, T/C (second compound 0.0949 µM, first compound 0.1 µM) was 20.5%, the viability, T/C (second compound 0.0949 µM, first compound 0.316 µM) was 17.7% and the viability, T/C (second compound 0.0949 µM, first compound 1 µM) was 18.5%. For the same compound, the viability, T/C (second compound 0.0949 µM, first compound 3.16 µM) was 7.46%, the viability, T/C (second compound 0.0949 µM, first compound 10 µM) was 0.15% and the viability, T/C (second compound 0.3 µM, first compound 0.0316 µM) was 10.7%. It also gave a viability, T/C (second compound 0.3 µM, first compound 0.1 µM) of 10.4%, a viability, T/C (second compound 0.3 µM, first compound 0.316 µM) of 9.23% and a viability, T/C (second compound 0.3 µM, first compound 1 µM) of 7.64%. It also gave a viability, T/C (second compound 0.3 µM, first compound 3.16 µM) of 3.23%, a viability, T/C (second compound 0.3 µM, first compound 10 µM) of 0.14% and a viability, T/C (second compound 0.949 µM, first compound 0.0316 µM) of 8.48%. For the same compound, the viability, T/C (second compound 0.949 µM, first compound 0.1 µM) was 8.88%, the viability, T/C (second compound 0.949 µM, first compound 0.316 µM) was 8.35% and the viability, T/C (second compound 0.949 µM, first compound 1 µM) was 6.27%. The viability, T/C (second compound 0.949 µM, first compound 3.16 µM) was 2.4%, the viability, T/C (second compound 0.949 µM, first compound 10 µM) was 0.14% and the viability, T/C (second compound 3 µM, first compound 0.0316 µM) was 7.28%. It also gave a viability, T/C (second compound 3 µM, first compound 0.1 µM) of 7.78%, a viability, T/C (second compound 3 µM, first compound 0.316 µM) of 8.39% and a viability, T/C (second compound 3 µM, first compound 1 µM) of 5.04%. For the same compound, the viability, T/C (second compound 3 µM, first compound 3.16 µM) was 2.37% and the viability, T/C (second compound 3 µM, first compound 10 µM) was 0.17%.
`C#Cc1c(F)ccc2cc(O)cc(-c3ncc4c(N5CC6CCC(C5)N6)nc(OCC56CCCN5CC(F)C6)nc4c3F)c12` (configuration not stated) was tested, and the viability, T/C (compound 0.0316 µM) was 79.3% and 89.2% and 129%, the viability, T/C (compound 0.1 µM) was 74.3% and 82.3% and 122% and the viability, T/C (compound 0.316 µM) was 71.5% and 63.9% and 81.2%. The viability, T/C (compound 1 µM) was 91.2% and 75.4% and 66.3%, the viability, T/C (compound 3.16 µM) was 87.4% and 64.3% and 106% and the viability, T/C (compound 10 µM) was 43.4% and 60.4% and 67.7%. The IC50 (curve of compound) was 8120 nM and > 10000 nM.
In the case of `CCN1CCN(Cc2ccc(Nc3ncc(F)c(-c4cc(F)c5nc(C)n(C(C)C)c5c4)n3)nc2)CC1` + Cc1c(S(C)(=O)=O)c(-c2cc(F)cc(N3CCN(c4ccc(NS(=O)(=O)c5ccc(NC(CCN6CCC(C(=O)OCCCP(=O)(O)O)CC6)CSc6ccccc6)c(S(=O)(=O)C(F)(F)F)c5)cc4)CC3)c2)c(-c2ccc(Cl)cc2)n1C(C)C, the IC50 (curve of first compound, second compound 0.1 µM) is reported as < 3.16 nM, the IC50 (curve of first compound, second compound 0.316 µM) is reported as < 3.16 nM and the IC50 (curve of first compound, second compound 1 µM) is reported as < 3.16 nM. For the same compound, the IC50 (curve of first compound, second compound 3.16 µM) was < 3.16 nM, the IC50 (curve of first compound, second compound 10 µM) was < 3.16 nM and the viability, T/C (second compound 0.1 µM, first compound 0.00316 µM) was 12.9%. For the same compound, the viability, T/C (second compound 0.1 µM, first compound 0.01 µM) was 10.8%, the viability, T/C (second compound 0.1 µM, first compound 0.0316 µM) was 12.1% and the viability, T/C (second compound 0.1 µM, first compound 0.1 µM) was 10.3%. The viability, T/C (second compound 0.1 µM, first compound 0.316 µM) was 17.6%, the viability, T/C (second compound 0.1 µM, first compound 1 µM) was 16.5% and the viability, T/C (second compound 0.316 µM, first compound 0.00316 µM) was 9.27%. The viability, T/C (second compound 0.316 µM, first compound 0.01 µM) was 8.57%, the viability, T/C (second compound 0.316 µM, first compound 0.0316 µM) was 8.42% and the viability, T/C (second compound 0.316 µM, first compound 0.1 µM) was 8.33%. The viability, T/C (second compound 0.316 µM, first compound 0.316 µM) was 9.57%, the viability, T/C (second compound 0.316 µM, first compound 1 µM) was 13.1% and the viability, T/C (second compound 1 µM, first compound 0.00316 µM) was 7.77%. For the same compound, the viability, T/C (second compound 1 µM, first compound 0.01 µM) was 7.58%, the viability, T/C (second compound 1 µM, first compound 0.0316 µM) was 7.78% and the viability, T/C (second compound 1 µM, first compound 0.1 µM) was 7.11%. It also gave a viability, T/C (second compound 1 µM, first compound 0.316 µM) of 8.27%, a viability, T/C (second compound 1 µM, first compound 1 µM) of 11.2% and a viability, T/C (second compound 3.16 µM, first compound 0.00316 µM) of 5.69%. The viability, T/C (second compound 3.16 µM, first compound 0.01 µM) was 6.84%, the viability, T/C (second compound 3.16 µM, first compound 0.0316 µM) was 6.29% and the viability, T/C (second compound 3.16 µM, first compound 0.1 µM) was 6.51%. The viability, T/C (second compound 3.16 µM, first compound 0.316 µM) was 6.86%, the viability, T/C (second compound 3.16 µM, first compound 1 µM) was 8.35% and the viability, T/C (second compound 10 µM, first compound 0.00316 µM) was 4.28%. The viability, T/C (second compound 10 µM, first compound 0.01 µM) was 4.29%, the viability, T/C (second compound 10 µM, first compound 0.0316 µM) was 5.21% and the viability, T/C (second compound 10 µM, first compound 0.1 µM) was 7.08%. For the same compound, the viability, T/C (second compound 10 µM, first compound 0.316 µM) was 6.28% and the viability, T/C (second compound 10 µM, first compound 1 µM) was 10.4%.
